Measured values from patent US11524011B2, “H3K27 demethylase inhibitors in pediatric and juvenile osteoporosis” (THE JOHNS HOPKINS UNIVERSITY, priority 2017, dated 2022).
“Also recorded” adds a separate entry of the source.

How the values were obtained:
BALB/c mice [1] = test: GSK-J4 in glucocorticoid (MPS)-treated young BALB/c mice: body weight, tail length, bone loss (μCT), angiogenesis and osteogenesis
Experimental: FIGS. 10A-10B. […] Body weight (10A) and Tail length (10B) were monitored at 2, 3, and 4 weeks after treatment. FIGS. 11A-11F. […] (11A) Representative μCT images of distal femur. Quantitative analyses of Femur length (11B), Trabecular bone volume fraction (BV/TV) (11C), trabecular number (Tb.N) (11D), trabecular thickness (Tb.Th) (11E), and trabecular separation (Tb.Sp) (11F). […] FIGS. 12A-12F. […] (12A-B) Double-immunofluorescence staining of femur sections was performed using antibodies against nestin (green) and H3K27me3 (red) (12A). Quantification of the percentage of nestin^+ cells that express H3K27me3 in the primary spongiosa (12B). Immunofluorescence staining of femur sections using antibody against osterix (Osx) (12C). Quantitative analysis of Osx^+ cells in the primary spongiosa (12D). Double-immunofluorescence staining of femur sections was performed using antibodies against CD31 (green) and endomucin (Emcn) (red) (12E). […] DAPI stains nuclei blue. Seven mice per group. GP, growth plate. PS, primary spongiosa. Mice femora were dissected, fixed overnight in 70% ethanol, and analyzed by high-resolution μCT (Skyscan 1172, Bruker MicroCT, Kontich, Belgium). We used NRecon image reconstruction software, version 1.6, (Bruker MicroCT), CTAn data-analysis software, version 1.9 (Bruker MicroCT), and CTVol 3-dimensional model visualization software, version 2.0, (Bruker MicroCT) to analyze parameters of the trabecular bone in the metaphysis and cortical bone in the mid-diaphysis. The scanner was set at 50 kVp, […]. Cross-sectional images of the distal femur were used to perform 3-dimensional histomorphometric analysis of trabecular bone. The sample area selected for analyses was a 2-mm length of the metaphyseal secondary spongiosa, originating 1.0 mm below the epiphyseal growth plate and extending caudally. Cortical morphometry was analyzed within a 600-μm long section at mid-diaphysis of the femur and included measurements of average thickness and cross-sectional area. […] Nuclei were counterstained with DAPI (Sigma).

[2] = system: childhood cancer diffuse intrinsic pontine glioma; conditions: preclinical studies; cited from earlier work
BALB/c mice [3] = conditions: MPS daily for 2 weeks; compared to controls
Experimental: Four-week-old BALB/c mice were treated with methylprednisolone (MPS) or vehicle daily for 2 weeks. (8A) A schematic illustration of the steps to isolate CD144^+ vascular endothelial cells from femoral metaphyses. […] (8D-8G) Quantitative RT-PCR analysis of ki67 (8D) p16^INK4a (8E), p53 (8F), and p21^CIP1 (8G) expression in the sorted CD144^+ cells. n=3, Data are represented as mean±s.e.m. *p<0.01 as determined by Student's t-tests.

Nestin-GFP mice [4] = test: Prednisolone treatment of early pubertal Nestin-GFP mice: cellular senescence / nestin expression in femoral primary spongiosa; format: in vivo, mouse
Experimental: (§1) FIGS. 4A-4L. Cellular Senescence in Primary Spongiosa of Long Bone is Decelerated in Growth Hormone (GH)-Treated Mice and Accelerated in Prednisolone-Treated Mice. (4A-4F) Four week-old Nestin-GFP mice were treated with recombinant mouse-GH (5 mg/kg·B·W.) or Vehicle by daily intraperitoneal injection for 4 weeks. Immunofluorescence staining of femur sections were performed using antibodies against GFP (green) (4A) or Ki67 (red) (4E). Images in upper panels in (4A) and (4E) are lower power with boxes outlining the area of higher power in lower panels. Quantification of the number of GFP+ (4B) or Ki67+ (4F) cells in femoral primary spongiosa. […] (4G-4L) Two-week-old Nestin-GFP mice were treated with prednisolone (10 mg/m^2/day) or Vehicle by daily intraperitoneal injection for 2 weeks. Immunofluorescence staining of femur sections were performed using antibodies against GFP (green) (4G) or Ki67 (red) (4K). Images in upper panels in (4G) and (4K) are lower power with boxes outlining the area of higher power in lower panels. Quantification of the number of GFP+ (4H) or Ki67+ (4L) cells in femoral primary spongiosa. […] Five mice per group. […] GP, growth plate.
(§2) For flow cytometric analysis and sorting of CD45-GFP− and CD45-GFP+ mesenchymal progenitor cells (MPCs) from femoral metaphysis, we dissected the femora free of soft tissues from Nestin-GFP mice. The epiphysis was removed and only the 3-mm-long metaphysis regions were processed. The bone was then digested with a protease solution (2 mg/mL collagenase A and 2.5 mg/mL trypsin in phosphate buffered saline [PBS]) for 20 minutes to remove the periosteum and periosteal progenitors (step I). […]
One of the major causes of secondary osteoporosis in children is the use of glucocorticoids for treatment of underlying chronic medical problems, such as autoimmune or inflammatory disorders. […] We thus assessed whether glucocorticoid-treated early pubertal mice display premature cellular senescence in primary spongiosa by injecting mice daily with prednisolone from age 2 weeks to 4 weeks.

Nestin-GFP mice [5] = test: Growth hormone treatment of pubertal Nestin-GFP mice: cellular senescence / nestin expression in femoral primary spongiosa; format: in vivo, mouse
Experimental: as §1
as §2, with “I). The bones were cut into small pieces and digested in the protease solution for another 1 hour (C, step II).” for “I).”
We tested whether the progression of the cellular senescence in primary spongiosa of long bone, as indicated by loss of nestin expression, is associated with bone growth/accrual. […] We assessed changes in nestin expression in the femoral primary spongiosa in pubertal mice after administration of recombinant GH. […]

[6] = MPS plus GSK-J4 10 mg/kg b.w. daily for 4 weeks, compared to MPS alone and to controls
[7] = summary statement, glucocorticoid-treated mice

CCOC(=O)CCNc1cc(N2CCc3ccccc3CC2)nc(-c2ccccn2)n1 [GSK-J4, N-[2-(2-Pyridinyl)-6-(1,2,4,5-tetrahydro-3H-3-benzazepin-3-yl)-4-pyrimidinyl]-β-alanine ethyl ester]
bone loss phenotype induced by MPS (μCT of distal femur: femur length, BV/TV, Tb.N, Tb.Th, Tb.Sp) (BALB/c mice [1]; MPS plus GSK-J4 10 mg/kg b.w. daily for 4 weeks, 10 mg/kg): at least partially reversed; also recorded: rescued
angiogenesis in femoral primary spongiosa (CD31 / Emcn fluorescence intensities) (BALB/c mice [1]; [6]): greatly improve
osteogenesis in femoral primary spongiosa (Osx+ cells) (BALB/c mice [1]; [6]): greatly improve
MPS-induced shortening of tail length (BALB/c mice [1]; concurrent treatment, MPS plus GSK-J4 10 mg/kg b.w. daily, 2, 3 and 4 weeks): abolished
glucocorticoid-induced growth retardation (BALB/c mice [1]; summary statement): rescued
H3K27 methylation (BALB/c mice [1]; [7]): elevated
early onset cellular senescence (BALB/c mice [1]; [7]): blocked
growth of childhood cancer diffuse intrinsic pontine glioma [2]: effectively inhibit

C[C@H]1C[C@@H]2[C@H]([C@@H](O)C[C@@]3(C)[C@H]2CC[C@]3(O)C(=O)CO)[C@@]2(C)C=CC(=O)C=C12 [MPS, methylprednisolone]
tail length (BALB/c mice [1]; MPS alone daily, 2, 3 and 4 weeks, compared with controls): significantly shortened
body weight (BALB/c mice [1]; MPS alone daily, monitored at 2, 3 and 4 weeks after treatment): no significant effect
ki67 expression in sorted CD144+ cells (quantitative RT-PCR) (BALB/c mice [3]): less
p16^INK4a expression in sorted CD144+ cells (quantitative RT-PCR) (BALB/c mice [3]): increased
p21^CIP1 expression in sorted CD144+ cells (quantitative RT-PCR) (BALB/c mice [3]): increased
p53 expression in sorted CD144+ cells (quantitative RT-PCR) (BALB/c mice [3]): increased

C[C@]12C=CC(=O)C=C1CC[C@@H]1[C@@H]2[C@@H](O)C[C@@]2(C)[C@H]1CC[C@]2(O)C(=O)CO [prednisolone]
senescence of the cells in primary spongiosa (Nestin-GFP mice [4]; mice treated with prednisolone): accelerated
Ki67+ proliferative cells in femoral primary spongiosa (Nestin-GFP mice [4]; prednisolone 10 mg/m^2/day daily i.p. for 2 weeks, vs vehicle): reduced
number of Nestin-GFP+ cells in femoral primary spongiosa (immunofluorescence staining and flow cytometry) (Nestin-GFP mice [4]; prednisolone 10 mg/m^2/day daily i.p. from age 2 weeks to 4 weeks, relative to vehicle-treated mice): significantly reduced

B1: GH: recombinant mouse growth hormone (protein, UniProt P06880 27-216, looked up)
Somatotropin: FPAMPLSSLFSNAVLRAQHLHQLAADTYKEFERAYIPEGQRYSIQNAQAAFCFSETIPAPTGKEEAQQRTDMELLRFSLLLIQSWLGPVQFLSRIFTNSLMFGTSDRVYEKLKDLEEGIQALMQELEDGSPRVGQILKQTYDKFDANMRSDDALLKNYGLLSCFKKDLHKAETYLRVMKCRRFVESSCAF
percentage of Ki67+ proliferative cells in primary spongiosa (Nestin-GFP mice [5]; GH 5 mg/kg daily i.p. for 4 weeks, relative to vehicle-treated mice): higher
senescence of the cells in primary spongiosa (Nestin-GFP mice [5]; mice treated with growth hormone): reduced
Nestin-GFP+ cells in primary spongiosa (immunofluorescence staining) (Nestin-GFP mice [5]; recombinant mouse-GH 5 mg/kg B.W. daily intraperitoneal injection for 4 weeks from 4 weeks of age, vs vehicle-treated mice): significantly increased
